Data on 1 molecule can be found in patent US8163788B2, “Low-molecular inhibitors of cytohesin-family guanine nucleotide exchange factors” (Rheinische Friedrich-Wilhelms Universitat Bonn, priority 2004, dated 2012).

What is called IC50 is the concentration needed to halve the response being measured. One may read the CC50 as the concentration at which the toxic effect on the cells reaches its halfway point. Low values mean harm at low concentration, high ones better tolerance by the cells.

Common to all, as to type: cell-based
The test system of data set [1] is cytohesin-2. The data set can be described thus: luciferase assay in HeLa-cells (serum response element activation, MAPK path via cytohesin-2). The note with it: compounds 1 μM to 50 μM, read-out: IC50 (luciferase signal). How it is done: The IC50 value was determined in comparison to the LC50 value in a luciferase assay in HeLa-cells, corresponding to the test conditions described in Theis, M. G. et al., Proc Natl Acad Sci USA, 101, 11221-26 (2004). The stimulation of receptor tyrosine kinases by means of growth factors contained in fetal calf serum activates the MAPK path via cytohesin-2 and results in an activation of the serum response element. This activation manifests itself in the quantity of luciferase produced in the cells.
Compounds (9), (10), (11), (12), (14) and (19) were each added in concentrations of 1 μM to 50 μM to 6.5×10^4 HeLa-cells.
The IC50 value was determined from the plotting of the concentration of the compound against the intensity of the luciferase signal.

Data set [2] can be described thus: MTT assay (LC50) in HeLa-cells. The settings on record: human, after 24 hours. How it is done: The LC50 values were determined by an MTT assay according to a standard method.
The LC50 value describes the lethal concentration at which […] died within 24 hours after a one-time administration.

For data set [3], the system named is human peripheral blood cells (PBL). The data set can be described thus: adhesion of human peripheral blood cells (PBL) to ICAM-1 after stimulation with OKT3 or PMA. The settings on record: FIG. 1. From the text: Human peripheral blood cells (PBL) were stimulated with agonists that activate a beta-2 integrin-dependent adhesion. In these primary human lymphocytes, the beta-2 integrin-dependent adhesion can be activated by cytohesins at the specific ligands ICAM-1.
The agonists employed were the monoclonal antibody OKT3 (hybridome of ATCC, mAb OKT3 purified on protein A, according to standard methods from Current Protocols in Immunology, 5th Ed., Coligan et al., Edts, Wiley 2004) against the CD3 complex, a T-cell receptor and phorbolester (PMA), which non-physiologically activates intracellular signal cascades in human PBL including integrin-dependent adhesion while circumventing cytohesins.
Cells from human blood were isolated according to standard methods (Current Protocols in Immunology, 5th Ed., 2004, Coligan et al., Edts, Wiley). Cell culture dishes coated with ICAM-1 were produced by means of recombinant ICAM-1-Fc fusion protein (Kolanus, W. et al., Cell 86, 233-42 (1996), Geiger, C. et al., EMBO J., 19, 2525-2536 (2000)). 300,000 human peripheral blood cells (PBL) were stimulated for 30 minutes with 2 μg/ml of OKT3 or 40 ng/ml of phorbolester (PMA) in Hank's BSS, (Gibco; composition (g/l): CaCl2x2H2O (0.185), KCl (0.4), KH2PO4 (0.06), MgCl2x6H2O (0.1), MgSO4x7H2O (0.1), NaCl (8.0), NaHCO3 (0.35), Na2HPO4 (0.048), D-glucose (1.0)), and placed for one hour in Hank's BSS onto the ICAM-1 coated cell culture dishes, whereby the agonists were not removed. Non-bound cells were removed by washing with Hank's BSS. The percentage of bound cells was determined by counting under a microscope using a standard counting grid.

For data set [4], the system named is Peripheral blood lymphocytes. In words: cytotoxicity by propidium iodide (PI) flow cytometry. The settings on record: 50 nM to 50 μM. How it is done: The cytotoxicity of the compound according to Formula (9) was determined by means of propidium iodide (PI) employing flow cytometry. PI is a DNA stain that cannot penetrate into living cells. The experiments were carried out in an incubator at 37° C. [98.6° F.] and 5% CO2.
Peripheral blood lymphocytes were incubated with concentrations of 50 nM, 100 nM, 1 μM, 5 μM, 20 μM or 50 μM of the compound according to Formula (9) in “VLE-RPMI+/+” (Biochrom). The DMSO concentration per batch was 0.5%. A control batch contained 0.5% DMSO. After 2 hours, 24 hours and 72 hours, cells were removed and incubated with 2 μg/ml of PI for 5 minutes. The cells were centrifuged at 200×g for 8 minutes, washed with PBS, centrifuged again and analyzed in a flow cytometer (Beckmann Coulter, Krefeld).
(In general: A flow cytometer gives signals particle by particle.)

Take `COc1nc(-c2ccc3c(c2)OCO3)n(-c2ccc(NC(=O)CSc3ccccc3)cc2)n1` [Compound 9]: the half-inhibitory concentration (IC50) in data set [1] was 12 ± 0.8 µM; in data set [3] (Homo sapiens, cells stimulated with OKT3, units given within the value, read-out: IC50 of inhibition of adhesion of PBL to ICAM-1), 0.5 to 1 µM. The molecule also returned a CC50 at 24 h in data set [2] of 141 ± 8 µM. In addition, the “effect on adhesion of PBL to ICAM-1” value in data set [3] (cells activated by phorbolester (PMA)) was “not influenced”. Further, in data set [4] (2 hours, 24 hours and 72 hours), the “percentage of PI-positive (dead) cells” value is given as “did not rise in a concentration-dependent or time-dependent manner”. Also, the cytotoxicity entry in data set [4] (conclusion from PI flow cytometry, up to 72 hours) is on record as “no cytotoxicity or at least no clearly detectable cytotoxicity”.
